Test results reported in paper PMC9402538, “Rational design of a sensitivity-enhanced tracer for discovering efficient APC–Asef inhibitors” (Nature Communications, 2022).
Where “and” joins values, the source holds several entries; their conditions need not be identical. Identical values can stand only once. Like-named read-outs stand apart in the source and are kept apart here. Where a SMILES comes first, the peptide text is derived from it. The star is where a group is joined. Pyrrole(1-Me-2-CO) = Cn1cccc1C(=O)*; Pyrrole2CO = O=C(c1ccc[nH]1)*; Picolinoyl = O=C(c1ccccn1)*

Legend:
[1] = tested on: LS-174T cells; test: DBZ-induced goblet cell differentiation of LS-174T cells (RT-PCR); assay type: cell-based; conditions: 1 μM DBZ
Procedure: . Notch inhibition by dibenzazepine (DBZ) allows colorectal stem cells to differentiate into goblet cells, and the DBZ-induced goblet cell differentiation of LS-174T cells is a well-established intestinal differentiation model. […].
Total RNA was extracted using TRIzol reagent (Takara Bio Inc., Japan) following the manufacturer’s instructions. Total RNA (1 μg) was reverse-transcribed into cDNA using the PrimeScript RT Kit (Takara Bio Inc., Japan). Quantitative real-time reverse transcription-PCR was performed using a SYBR Green kit (Vazyme, China). β-Actin mRNA was employed as a reference gene for expression normalization. The qPCR primer sequences are listed in Supplementary Table 8. […]
Supplementary Fig. 17. Effect of […] on apoptosis and cell differentiation. a,b) Flow cytometry apoptosis analysis of SW480 (a) and HIEC-6 (b) cells treated with 25 μM MAIT -516 for 48 h, the gating strategy is shown for control sample . c) RT-PCR analysis of genes involved in intestinal cell differentiation ( MUC2, ATOH1, HES1, SPDEF and TFF3) in LS-174T cells. LS-174T cells were treated […]
mean ± SD (n = 3 independent experiments). p values were calculated by one-way ANOVA with Tukey’s multiple comparisons test.
Source data are provided as a Source Data file.
(1 picture or pasted object on this page, not shown here)

[2] = biological target: T1, APC (Homo sapiens, UniProt P25054); test: FP competitive assay using tracer 1; assay type: binding; conditions: for IC50: Supplementary Table 4, read-out: IC50, Tracer 1; for FP(mp): Tracer 1, triplicate raw readings
T1 sequence (P25054 303-739): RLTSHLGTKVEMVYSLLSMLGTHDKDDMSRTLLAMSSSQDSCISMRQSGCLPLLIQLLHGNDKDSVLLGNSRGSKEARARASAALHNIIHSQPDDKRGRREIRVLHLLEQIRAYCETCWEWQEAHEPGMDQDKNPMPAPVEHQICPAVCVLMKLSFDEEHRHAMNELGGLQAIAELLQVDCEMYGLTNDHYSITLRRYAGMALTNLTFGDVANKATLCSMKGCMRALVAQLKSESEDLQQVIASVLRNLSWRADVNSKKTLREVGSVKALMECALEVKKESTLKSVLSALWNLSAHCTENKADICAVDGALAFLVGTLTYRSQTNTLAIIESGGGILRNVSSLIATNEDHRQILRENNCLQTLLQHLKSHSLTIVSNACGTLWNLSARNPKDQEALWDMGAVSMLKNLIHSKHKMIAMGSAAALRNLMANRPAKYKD
Procedure: In our previous study, we established an FP assay for screening APC–Asef inhibitors using FITC-labeled tracer 1 (Ac–^176[…][FITC]^195–NH2)[16]. […]. However, their Kd values measured by isothermal titration calorimetry (ITC) actually vary up to more than 20 times[16],[17]. […].
FITC-labeled tracer peptides were obtained from Changzhou Kanglong Biotech Ltd. (Changzhou, Jiangsu, China). […]. The FP signal changes upon tracer binding were measured after 1.5 h of incubation using a Synergy neo microplate reader (BioTek Instruments, Inc.) and plotted against the protein concentration. The corresponding EC50 values were generated by fitting the curves with a nonlinear regression model. […]. To make a working solution, APC (303–739) was diluted in FP buffer (50 mM HEPES, pH 7.5, 300 mM NaCl, 1 mM EDTA, 1 mM DTT). […] The FP signals were measured after 1.5 h of incubation at room temperature using a Synergy neo microplate reader. Three controls were included on each plate, i.e., blank (without protein and tracer), 100% inhibition (free tracer only), and 0% inhibition (protein/tracer complex only) controls. All experiments were performed in triplicate. The IC50 values of peptides were calculated by nonlinear regression analysis using GraphPad Prism 7.0 software.

[3] = biological target: T2, APC (303–739) (Homo sapiens, UniProt P25054); test: FP competitive assay using tracer 7; assay type: binding; conditions: for IC50: Table 3 source data; for FP(mp): Tracer 7, replicate wells
T2 sequence (P25054 303-739): T1 sequence (P25054 303-739)
Procedure, shortened: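 Peptide dilutions were first incubated 1 h at room temperature with APC (303–739) in HEPES pH 7.5 buffer containing 300 mM NaCl, EDTA and DTT. Added FITC tracer 7 (400 nM stock) displaced over a further 1.5 h before polarization reading. IC50 values came from nonlinear regression fits of triplicate data.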

[4] = Repeat 1, read-out: IC50(μM) Repeat 1
[5] = Repeat 2, read-out: IC50(μM) Repeat 2
[6] = Repeat 3, read-out: IC50(μM) Repeat 3
[7] = mean of 3 repeats, read-out: IC50(μM) mean

Row | IC50 [2] [nM] | FP(mp) ([2]; Conc. 0.05 μM) | FP(mp) ([2]; Conc. 0.10 μM) | FP(mp) ([2]; Conc. 0.20 μM) | FP(mp) ([2]; Conc. 0.39 μM) | FP(mp) ([2]; Conc. 0.78 μM) | FP(mp) ([2]; Conc. 1.56 μM) | FP(mp) ([2]; Conc. 3.13 μM) | FP(mp) ([2]; Conc. 6.25 μM) | FP(mp) ([2]; Conc. 12.50 μM) | FP(mp) ([2]; Conc. 25.00 μM) | FP(mp) ([2]; Conc. 50.00 μM) | FP(mp) ([2]; Conc. 100.00 μM) | FP(mp) ([2]; Conc. 200.00 μM) | FP(mp) ([2]; Conc. 400.00 μM) | IC50 [3, 4] [µM] | IC50 [3, 5] [µM] | IC50 [3, 6] [µM] | FP(mp) ([3]; Conc. 0.0061 μM) | FP(mp) ([3]; Conc. 0.0122 μM) | SMILES | also measured
1 |  |  |  |  |  |  |  |  |  |  |  |  |  |  |  |  |  |  |  |  | C[C@H](NC(=O)Cc1cc(F)cc(F)c1)C(=O)N[C@@H]1C(=O)N(C)c2ccccc2-c2ccccc21 [DBZ, dibenzazepine] | mRNA level of NOTCH target gene HES1 [1]: significantly suppressed; mRNA levels of goblet cell markers (MUC2, TFF3, ATOH1, SPDEF) [1]: increasing the mRNA levels
2 | 640 ± 170 | 182 mp and 179 mp | 180 mp and 177 mp | 175 mp and 169 mp and 173 mp | 157 mp and 159 mp and 160 mp | 120 mp and 128 mp and 126 mp | 72 mp and 73 mp | 56 mp and 54 mp | 52 mp and 55 mp and 51 mp | 50 mp and 51 mp and 47 mp | 50 mp and 48 mp | 48 mp and 50 mp and 46 mp | 50 mp and 51 mp and 47 mp | 48 mp and 50 mp | 57 mp and 53 mp | 0.595 | 0.526 | 0.599 | 288 mp and 294 mp and 291 mp | 287 mp and 290 mp and 289 mp | CC(C)C[C@H](NC(=O)[C@H](CO)NC(=O)[C@H](CCC(=O)O)NC(=O)CNC(=O)[C@H](C)NC(=O)c1ccc[nH]1)C(=O)N[C@@H](Cc1ccc(O)cc1)C(=O)N[C@@H](CCC(=O)O)C(N)=O [MAI-509] (Pyrrole2CO-AGESLYE-NH2) | FP(mp) ([3]; Conc. 0.0244 μM): 290 mp (2×) and 292 mp; FP(mp) ([3]; Conc. 0.05 μM): 281 mp and 276 mp and 278 mp; FP(mp) ([3]; Conc. 0.10 μM): 261 mp and 262 mp and 266 mp; FP(mp) ([3]; Conc. 0.20 μM): 233 mp and 232 mp and 238 mp; FP(mp) ([3]; Conc. 0.39 μM): 196 mp and 201 mp and 193 mp; FP(mp) ([3]; Conc. 0.78 μM): 163 mp and 164 mp (2×); FP(mp) ([3]; Conc. 1.56 μM): 129 mp and 126 mp (2×); FP(mp) ([3]; Conc. 3.13 μM): 103 mp and 101 mp (2×); FP(mp) ([3]; Conc. 6.25 μM): 81 mp and 84 mp and 83 mp; FP(mp) ([3]; Conc. 12.50 μM): 71 mp and 69 mp and 67 mp; FP(mp) ([3]; Conc. 25.00 μM): 65 mp and 63 mp (2×); FP(mp) ([3]; Conc. 50.00 μM): 63 mp and 60 mp (2×); IC50 [3, 7]: 0.573 µM
3 | 490 ± 130 | 182 mp and 181 mp and 180 mp | 170 mp and 178 mp and 179 mp | 158 mp and 172 mp | 146 mp and 158 mp and 159 mp | 82 mp and 112 mp and 116 mp | 61 mp and 63 mp and 64 mp | 52 mp and 51 mp and 53 mp | 51 mp and 50 mp | 49 mp and 48 mp | 49 mp and 46 mp and 48 mp | 46 mp and 47 mp and 50 mp | 48 mp and 49 mp and 50 mp | 48 mp and 47 mp | 50 mp and 52 mp | 0.366 | 0.34 | 0.303 | 303 mp | 296 mp and 295 mp and 301 mp | CC(C)C[C@H](NC(=O)[C@H](CO)NC(=O)[C@H](CCC(=O)O)NC(=O)CNC(=O)[C@H](C)NC(=O)c1cccn1C)C(=O)N[C@@H](Cc1ccc(O)cc1)C(=O)N[C@@H](CCC(=O)O)C(N)=O [MAI-510] ({Pyrrole(1-Me-2-CO)}-AGESLYE-NH2) | FP(mp) ([3]; Conc. 0.0244 μM): 291 mp and 290 mp and 295 mp; FP(mp) ([3]; Conc. 0.05 μM): 274 mp and 278 mp and 275 mp; FP(mp) ([3]; Conc. 0.10 μM): 247 mp and 251 mp and 254 mp; FP(mp) ([3]; Conc. 0.20 μM): 216 mp and 217 mp and 220 mp; FP(mp) ([3]; Conc. 0.39 μM): 171 mp and 173 mp and 169 mp; FP(mp) ([3]; Conc. 0.78 μM): 131 mp and 132 mp (2×); FP(mp) ([3]; Conc. 1.56 μM): 98 mp and 97 mp and 95 mp; FP(mp) ([3]; Conc. 3.13 μM): 71 mp and 73 mp and 75 mp; FP(mp) ([3]; Conc. 6.25 μM): 62 mp and 60 mp and 65 mp; FP(mp) ([3]; Conc. 12.50 μM): 52 mp and 53 mp and 55 mp; FP(mp) ([3]; Conc. 25.00 μM): 50 mp (2×) and 55 mp; FP(mp) ([3]; Conc. 50.00 μM): 47 mp and 50 mp (2×); IC50 [3, 7]: 0.336 µM
4 | 750 ± 180 | 172 mp and 170 mp | 168 mp | 166 mp and 163 mp and 165 mp | 156 mp and 155 mp and 153 mp | 126 mp and 125 mp and 122 mp | 80 mp and 79 mp and 78 mp | 59 mp and 55 mp | 52 mp and 50 mp | 53 mp and 48 mp and 50 mp | 51 mp and 48 mp and 47 mp | 51 mp and 48 mp and 47 mp | 51 mp and 53 mp | 51 mp and 47 mp and 50 mp | 53 mp and 50 mp and 47 mp | 1.04 | 0.958 | 0.93 | 305 mp and 310 mp and 308 mp | 307 mp and 310 mp (2×) | CC(C)C[C@H](NC(=O)[C@H](CO)NC(=O)[C@H](CCC(=O)O)NC(=O)CNC(=O)[C@H](C)NC(=O)c1ccccn1)C(=O)N[C@@H](Cc1ccc(O)cc1)C(=O)N[C@@H](CCC(=O)O)C(N)=O [MAI-512] (Picolinoyl-AGESLYE-NH2) | FP(mp) ([3]; Conc. 0.0244 μM): 298 mp and 303 mp and 300 mp; FP(mp) ([3]; Conc. 0.05 μM): 293 mp and 300 mp and 297 mp; FP(mp) ([3]; Conc. 0.10 μM): 290 mp and 286 mp and 291 mp; FP(mp) ([3]; Conc. 0.20 μM): 266 mp and 274 mp and 271 mp; FP(mp) ([3]; Conc. 0.39 μM): 242 mp and 240 mp and 236 mp; FP(mp) ([3]; Conc. 0.78 μM): 199 mp (2×) and 200 mp; FP(mp) ([3]; Conc. 1.56 μM): 160 mp and 157 mp and 158 mp; FP(mp) ([3]; Conc. 3.13 μM): 119 mp (2×) and 121 mp; FP(mp) ([3]; Conc. 6.25 μM): 94 mp and 89 mp and 91 mp; FP(mp) ([3]; Conc. 12.50 μM): 80 mp and 77 mp and 78 mp; FP(mp) ([3]; Conc. 25.00 μM): 69 mp and 66 mp and 65 mp; FP(mp) ([3]; Conc. 50.00 μM): 61 mp and 57 mp and 60 mp; IC50 [3, 7]: 0.976 µM
